Laboratory results from PubChem BioAssay AID328 (DTP/NCI, 2004).
Values joined by “and” are separate entries in the source; they are usually repeats but may differ in a detail not shown here. Equal entries are not always repeated. Inconclusive results and toxic doses are left out.

Test system: BDF1 mice, P388 leukemia ip, median survival T/C
Assay: NCI In Vivo Anticancer Drug Screen. Data for tumor model P388 Leukemia (intraperitoneal) in B6D2F1 (BDF1) mice
Settings: endpoint: median survival time, higher = longer survival
In short: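 Transplantable tumour in mice; compound vs vehicle dosing; survival scored; ratio of treated to control reported.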

[1] = dose: 25.0 mg/kg/injection, schedule: Q01DX009 (ip), vehicle: Klucel (hydroxypropylcellulose) (HPC)
[2] = dose: 50.0 mg/kg/injection, schedule: Q01DX009 (ip), vehicle: Klucel (hydroxypropylcellulose) (HPC)
[3] = dose: 100.0 mg/kg/injection, schedule: Q01DX009 (ip), vehicle: Klucel (hydroxypropylcellulose) (HPC)
[4] = dose: 25.0 mg/kg/injection, schedule: Q01DX009 (ip), vehicle: saline with Tween-80
[5] = dose: 50.0 mg/kg/injection, schedule: Q01DX009 (ip), vehicle: saline with Tween-80
[6] = dose: 100.0 mg/kg/injection, schedule: Q01DX009 (ip), vehicle: saline with Tween-80
[7] = dose: 200.0 mg/kg/injection, schedule: Q01DX009 (ip), vehicle: saline with Tween-80
[8] = dose: 100.0 mg/kg/injection, schedule: Q01DX001 (ip), vehicle: saline with Tween-80
[9] = dose: 200.0 mg/kg/injection, schedule: Q01DX001 (ip), vehicle: saline with Tween-80
[10] = dose: 400.0 mg/kg/injection, schedule: Q01DX001 (ip), vehicle: saline with Tween-80
[11] = dose: 50.0 mg/kg/injection, schedule: Q04DX003 (ip), vehicle: saline with Tween-80
[12] = dose: 100.0 mg/kg/injection, schedule: Q04DX003 (ip), vehicle: saline with Tween-80
[13] = dose: 200.0 mg/kg/injection, schedule: Q04DX003 (ip), vehicle: saline with Tween-80
[14] = dose: 400.0 mg/kg/injection, schedule: Q01DX009 (ip), vehicle: saline with Tween-80
[15] = dose: 400.0 mg/kg/injection, schedule: Q04DX003 (ip), vehicle: saline with Tween-80
[16] = dose: 12.5 mg/kg/injection, schedule: Q04DX003 (ip), vehicle: saline with Tween-80
[17] = dose: 25.0 mg/kg/injection, schedule: Q04DX003 (ip), vehicle: saline with Tween-80

O=C(O)CCCCc1ccc(CCCCC(=O)O)cc1
T/C [1]: 104 % of control | T/C [2]: 104 % of control | T/C [3]: 90 % of control | T/C (dose: 150.0 mg/kg/injection, schedule: Q04DX003 (ip), vehicle: Klucel (hydroxypropylcellulose) (HPC)): 120 % of control

Cc1cc(-c2ccccc2)[n+](C)n1C
T/C (dose: 12.5 mg/kg/injection, schedule: Q01DX009 (ip), vehicle: saline with Tween-80): 98 % of control | T/C [4]: 118 % of control

COC(=O)c1cc(=O)nc(N/N=C/c2ccc(C)cc2)s1
T/C (dose: 50.0 mg/kg/injection, schedule: Q01DX005 (ip), vehicle: saline with Tween-80): 94 % of control | T/C (dose: 100.0 mg/kg/injection, schedule: Q01DX005 (ip), vehicle: saline with Tween-80): 89 % of control | T/C (dose: 200.0 mg/kg/injection, schedule: Q01DX005 (ip), vehicle: saline with Tween-80): 99 % of control

Clc1nn2cnnc2c2ccccc12
T/C (dose: 5.0 mg/kg/injection, schedule: Q01DX009 (ip), vehicle: saline): 101 % of control | T/C (dose: 10.0 mg/kg/injection, schedule: Q01DX009 (ip), vehicle: saline): 101 % of control

COc1cccc(CCCC(=O)C(C)S(C)=O)c1 (centres undefined)
T/C [5]: 112 % of control | T/C [6]: 101 % of control | T/C [7]: 110 % of control

CN=C(c1ccccc1)C1(O)CC2CCC1C2 (centres undefined)
T/C [8]: 100 % of control | T/C [9]: 104 % of control | T/C [10]: 100 % of control

CCOC(=O)/C=C/c1ccco1
T/C [5]: 100 % of control | T/C [11]: 104 % of control | T/C [6]: 88 % of control | T/C [12]: 109 % of control | T/C [7]: 88 % of control | T/C [13]: 109 % of control

COc1cc([C@@H]2c3cc4c(cc3[C@@H](OC3OC5COC(C)OC5C(O)C3O)[C@H]3COC(=O)[C@H]23)OCO4)cc(OC)c1O (some centres undefined)
T/C (dose: 7.48 mg/kg/injection, schedule: Q04DX003 (ip), vehicle: other): 225 % of control | T/C (dose: 11.8 mg/kg/injection, schedule: Q04DX003 (ip), vehicle: Klucel (hydroxypropylcellulose) (HPC)): 533 % of control | T/C (dose: 11.8 mg/kg/injection, schedule: Q04DX003 (ip), vehicle: saline): 170 % of control | T/C (dose: 12.0 mg/kg/injection, schedule: Q04DX003 (ip), vehicle: saline): 287 % of control | T/C (dose: 12.5 mg/kg/injection, schedule: Q04DX003 (ip), vehicle: other): 266 % of control | T/C (dose: 17.8 mg/kg/injection, schedule: Q04DX003 (ip), vehicle: Klucel (hydroxypropylcellulose) (HPC)): 535 % of control | T/C (dose: 17.8 mg/kg/injection, schedule: Q04DX003 (ip), vehicle: saline): 200 % of control | T/C (dose: 18.0 mg/kg/injection, schedule: Q04DX003 (ip), vehicle: Klucel (hydroxypropylcellulose) (HPC)): 476 % of control | T/C (dose: 18.0 mg/kg/injection, schedule: Q04DX003 (ip), vehicle: saline): 548 % of control | T/C (dose: 22.08 mg/kg/injection, schedule: Q04DX003 (ip), vehicle: other): 490 % of control | T/C (dose: 27.0 mg/kg/injection, schedule: Q04DX003 (ip), vehicle: Klucel (hydroxypropylcellulose) (HPC)): 535 % of control | T/C (dose: 27.0 mg/kg/injection, schedule: Q04DX003 (ip), vehicle: saline): 550 % of control and 222 % of control | T/C (dose: 30.0 mg/kg/injection, schedule: Q04DX003 (ip), vehicle: Klucel (hydroxypropylcellulose) (HPC)): 242 % of control | T/C (dose: 34.6 mg/kg/injection, schedule: Q04DX003 (ip), vehicle: other): 491 % of control | T/C (dose: 40.0 mg/kg/injection, schedule: Q04DX003 (ip), vehicle: saline): 550 % of control | T/C (dose: 40.5 mg/kg/injection, schedule: Q04DX003 (ip), vehicle: Klucel (hydroxypropylcellulose) (HPC)): 535 % of control | T/C (dose: 40.5 mg/kg/injection, schedule: Q04DX003 (ip), vehicle: saline): 300 % of control | T/C (dose: 60.0 mg/kg/injection, schedule: Q04DX003 (ip), vehicle: saline): 202 % of control

O=c1[nH]cnc2n[nH]nc12
T/C [6]: 108 % of control | T/C [12]: 104 % of control | T/C [7]: 124 % of control | T/C [13]: 113 % of control | T/C [14]: 100 % of control | T/C [15]: 104 % of control

O=[N+]([O-])c1ccc([N+](=O)[O-])c(Cl)c1
T/C [16]: 90 % of control | T/C [1]: 100 % of control | T/C [17]: 109 % of control | T/C [2]: 109 % of control | T/C [11]: 109 % of control | T/C [3]: 118 % of control | T/C (dose: 100.0 mg/kg/injection, schedule: Q04DX003 (ip), vehicle: Klucel (hydroxypropylcellulose) (HPC)): 109 % of control | T/C (dose: 150.0 mg/kg/injection, schedule: Q01DX009 (ip), vehicle: Klucel (hydroxypropylcellulose) (HPC)): 118 % of control

CN1CCN(c2ccc([N+](=O)[O-])c3no[n+]([O-])c23)CC1
T/C (dose: 10.0 mg/kg/injection, schedule: Q01DX009 (ip), vehicle: saline with Tween-80): 166 % of control | T/C (dose: 20.0 mg/kg/injection, schedule: Q01DX009 (ip), vehicle: saline with Tween-80): 169 % of control

Cc1ccc(Nc2nc(N)nc(N)c2N)cc1Cl
T/C (dose: 33.0 mg/kg/injection, schedule: Q01DX009 (ip), vehicle: saline with Tween-80): 120 % of control

CCOC(=O)NCCc1ccc(OC)c(OC)c1
T/C [4]: 109 % of control | T/C [5]: 124 % of control | T/C [6]: 89 % of control | T/C [7]: 106 % of control | T/C [14]: 107 % of control

CC1=CC(C(O)C(C)C)C(C)(Cc2ccc(C)cn2)NC1c1ccccc1 (centres undefined)
T/C (dose: 6.25 mg/kg/injection, schedule: Q04DX003 (ip), vehicle: saline with Tween-80): 102 % of control | T/C [16]: 102 % of control | T/C [17]: 109 % of control

COC(=O)C(I)C(OC)c1ccccc1 (centres undefined)
T/C [6]: 100 % of control | T/C [7]: 105 % of control | T/C [14]: 110 % of control

COc1cccc2c1C(=O)c1c(O)c3c(c(O)c1C2=O)C[C@@](O)(/C(CO)=N/NC(=O)c1ccc(Cl)c(Cl)c1)C[C@@H]3OC1CC(N)C(O)C(C)O1 (some centres undefined)
T/C (dose: 0.78 mg/kg/injection, schedule: Q01DX009 (ip), vehicle: water): 94 % of control | T/C (dose: 3.12 mg/kg/injection, schedule: Q01DX009 (ip), vehicle: water): 116 % of control and 217 % of control | T/C (dose: 6.25 mg/kg/injection, schedule: Q01DX009 (ip), vehicle: water): 121 % of control

CC1CN1C(=O)c1cc(C(=O)N2CC2C)cc(C(=O)N2CC2C)c1 (centres undefined)
T/C (dose: 8.25 mg/kg/injection, schedule: Q04DX003 (ip), vehicle: saline with Tween-80): 113 % of control | T/C (dose: 16.5 mg/kg/injection, schedule: Q04DX003 (ip), vehicle: saline with Tween-80): 117 % of control | T/C (dose: 37.5 mg/kg/injection, schedule: Q01DX009 (ip), vehicle: saline with Tween-80): 166 % of control | T/C [5]: 163 % of control | T/C (dose: 66.0 mg/kg/injection, schedule: Q04DX003 (ip), vehicle: saline): 86 % of control | T/C (dose: 150.0 mg/kg/injection, schedule: Q04DX003 (ip), vehicle: saline): 86 % of control

COC(C)(OC)C(N)=O
T/C [12]: 100 % of control | T/C [13]: 100 % of control | T/C [15]: 104 % of control

C(=C\c1nc2ccccc2[nH]1)/c1nc2ccccc2[nH]1
T/C [4]: 100 % of control | T/C [5]: 100 % of control | T/C [6]: 92 % of control | T/C [7]: 98 % of control

C/C(=C/c1cc2c(cc1Br)OCO2)[N+](=O)[O-]
T/C [17]: 98 % of control | T/C [11]: 98 % of control | T/C [12]: 100 % of control and 106 % of control | T/C [13]: 115 % of control

O=C(O)c1ccccc1C(=O)OC1=CS(=O)(=O)CC1
T/C (dose: 50.0 mg/kg/injection, schedule: Q01DX001 (ip), vehicle: saline with Tween-80): 93 % of control | T/C [8]: 96 % of control | T/C [9]: 97 % of control | T/C [10]: 110 % of control

COC(=O)c1cc2ccccc2o1
T/C [12]: 95 % of control | T/C [13]: 95 % of control | T/C [15]: 91 % of control

COC(OC)c1cc(=O)[nH]c(=S)[nH]1
T/C (dose: 100.0 mg/kg/injection, schedule: Q01DX001 (ip), vehicle: Klucel (hydroxypropylcellulose) (HPC)): 100 % of control | T/C (dose: 200.0 mg/kg/injection, schedule: Q01DX001 (ip), vehicle: Klucel (hydroxypropylcellulose) (HPC)): 109 % of control | T/C (dose: 400.0 mg/kg/injection, schedule: Q01DX001 (ip), vehicle: Klucel (hydroxypropylcellulose) (HPC)): 90 % of control
